Reference: patent US20250320213A1, “Nitrogen-Containing Heterocyclic Compounds” (Pfizer Inc., priority 2024, published 2025)

How the values were obtained:
[1] = system: CCL17 secretion in peripheral human whole blood; assay: Human Whole Blood (HWB) CCL17 TR-FRET Assay (IL-13 stimulated CCL17 secretion); assay type: cell-based; conditions: Homo sapiens, 48 h, human whole blood, IL-13 stimulated
Summary of the method: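 Heparinized human whole blood was preincubated with compound (11-point, 3-fold series) for 2 h at 37°C, then stimulated with IL-13 (10 ng/mL final) for 48 h. Serum CCL17 was measured by TR-FRET sandwich immunoassay (665/615 nm ratio) after 16 h at room temperature, giving IC50.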

[2] = biological target: T1, STAT6 (Homo sapiens, UniProt P42226); assay: STAT6 Reporter Luciferase Assay (IL-13 stimulated HaCaT keratinocyte NanoLuc reporter cells); assay type: cell-based; conditions: IL-13 stimulated HaCaT STAT6 NanoLuc reporter cells; read-out: Reporter EC50
T1 construct: stably transfected HaCaT keratinocyte cell line, which expresses NanoLuc luciferase reporter gene under the transcriptional control of the STAT6 responsive promoter; endogenous in cells; host or cells: HaCaT keratinocyte reporter cell line (stably transfected with a NanoLuc reporter)
T1 sequence (P42226 1-847): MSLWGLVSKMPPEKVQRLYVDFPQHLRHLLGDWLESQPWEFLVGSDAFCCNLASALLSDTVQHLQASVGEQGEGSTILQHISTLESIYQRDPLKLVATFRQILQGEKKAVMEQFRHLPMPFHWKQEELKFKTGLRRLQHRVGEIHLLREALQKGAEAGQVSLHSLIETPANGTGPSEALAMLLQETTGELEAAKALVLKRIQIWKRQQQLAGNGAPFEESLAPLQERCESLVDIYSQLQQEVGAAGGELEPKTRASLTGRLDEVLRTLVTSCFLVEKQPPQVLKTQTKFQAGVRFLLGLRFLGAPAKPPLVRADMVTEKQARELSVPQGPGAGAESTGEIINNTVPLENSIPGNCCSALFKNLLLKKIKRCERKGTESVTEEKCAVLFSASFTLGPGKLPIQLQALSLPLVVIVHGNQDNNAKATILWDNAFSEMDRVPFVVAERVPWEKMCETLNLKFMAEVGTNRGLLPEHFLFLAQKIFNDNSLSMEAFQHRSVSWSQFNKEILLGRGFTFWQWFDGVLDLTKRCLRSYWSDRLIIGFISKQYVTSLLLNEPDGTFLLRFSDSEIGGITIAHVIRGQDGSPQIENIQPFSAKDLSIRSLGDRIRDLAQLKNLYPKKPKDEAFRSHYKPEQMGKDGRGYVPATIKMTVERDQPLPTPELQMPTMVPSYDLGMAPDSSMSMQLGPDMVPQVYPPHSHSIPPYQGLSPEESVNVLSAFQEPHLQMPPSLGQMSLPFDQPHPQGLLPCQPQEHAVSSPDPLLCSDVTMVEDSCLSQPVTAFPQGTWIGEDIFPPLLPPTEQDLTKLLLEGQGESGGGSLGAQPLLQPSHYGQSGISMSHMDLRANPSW
Summary of the method: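 HaCaT IL-13Ra2-promoter NanoLuc reporter; cpd 2 h 37 °C in DMEM/2% HI FBS; IL-13 0.12 nM final, 4 h; Nano-Glo luminescence.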

Structure (SMILES)	IC50 [1] [nM]	EC50 [2] [nM]
CC(C)n1nc(C(=O)NCc2ccc(NC(=O)N(C)C)cc2)c2c1[C@@H](C)CN(c1ncc(C(=O)N3Cc4cccnc4C3)cn1)C2 [Example 346, (S)-5-(5-(6,7-dihydro-5H-pyrrolo[3,4-b]pyridine-6-carbonyl)pyrimidin-2-yl)-N-(4-(3,3-dimethylureido)benzyl)-1-isopropyl-7-methyl-4,5,6,7-tetrahydro-1H-pyrazolo[4,3-c]pyridine-3-carboxamide]	13	2
COc1nccc2c1CN(C(=O)c1ccc(N3CCc4c(c(C(=O)NCc5ccc(NC(=O)N(C)C)cc5)nn4C(C)C)C3)nc1)CC2 [Example 375, N-(4-(3,3-dimethylureido)benzyl)-1-isopropyl-5-(5-(8-methoxy-1,2,3,4-tetrahydro-2,7-naphthyridine-2-carbonyl)pyridin-2-yl)-4,5,6,7-tetrahydro-1H-pyrazolo[4,3-c]pyridine-3-carboxamide]	1960	15
COc1ccc2c(n1)CCN(C(=O)c1ccc(N3CCc4c(c(C(=O)NCc5ccc(NC(=O)N(C)C)cc5)nn4C(C)C)C3)nc1)C2 [Example 384, N-(4-(3,3-dimethylureido)benzyl)-1-isopropyl-5-(5-(2-methoxy-5,6,7,8-tetrahydro-1,6-naphthyridine-6-carbonyl)pyridin-2-yl)-4,5,6,7-tetrahydro-1H-pyrazolo[4,3-c]pyridine-3-carboxamide]	1070	15
CCn1nc(C(=O)NCc2ccc(C(=O)NC)cc2)c2c1[C@@H](C)CN(c1ccc(N3CCCC3=O)cn1)C2 [Example 388, (S)-1-ethyl-7-methyl-N-(4-(methylcarbamoyl)benzyl)-5-(5-(2-oxopyrrolidin-1-yl)pyridin-2-yl)-4,5,6,7-tetrahydro-1H-pyrazolo[4,3-c]pyridine-3-carboxamide]	29	8
CCn1nc(C(=O)NCc2ccc(C(N)=O)cc2)c2c1[C@@H](C)CN(c1ccc(N3CCCC3=O)cn1)C2 [Example 389, (S)-N-(4-carbamoylbenzyl)-1-ethyl-7-methyl-5-(5-(2-oxopyrrolidin-1-yl)pyridin-2-yl)-4,5,6,7-tetrahydro-1H-pyrazolo[4,3-c]pyridine-3-carboxamide]	17	6
CNC(=O)c1ccc(CNC(=O)c2nn(C(C)C)c3c2CN(c2ccc(C(=O)N4Cc5cccnc5C4)cn2)C[C@@H]3C)cc1 [Example 396, (S)-5-(5-(6,7-dihydro-5H-pyrrolo[3,4-b]pyridine-6-carbonyl)pyridin-2-yl)-1-isopropyl-7-methyl-N-(4-(methylcarbamoyl)benzyl)-4,5,6,7-tetrahydro-1H-pyrazolo[4,3-c]pyridine-3-carboxamide]	15	1
CN(C)C(=O)Nc1ccc(CNC(=O)c2nn(C)c3c2CN(c2ccc(C(=O)N(C)C)cn2)C2(CC2)C3)cc1 [Example 400, 5′-(5-(dimethylcarbamoyl)pyridin-2-yl)-N-(4-(3,3-dimethylureido)benzyl)-1′-methyl-1′,4′,5′,7′-tetrahydrospiro[cyclopropane-1,6′-pyrazolo[4,3-c]pyridine]-3′-carboxamide]	2570	1040
COc1ccnc2c1CCN(C(=O)c1ccc(N3CCc4c(c(C(=O)NCc5ccc(NC(=O)N(C)C)cc5)nn4C(C)C)C3)nc1)C2 [Example 407, N-(4-(3,3-dimethylureido)benzyl)-1-isopropyl-5-(5-(4-methoxy-5,6,7,8-tetrahydro-1,7-naphthyridine-7-carbonyl)pyridin-2-yl)-4,5,6,7-tetrahydro-1H-pyrazolo[4,3-c]pyridine-3-carboxamide]	100	10
CC(C)n1nc(C(=O)NCc2ccc(NC(=O)N(C)C)cc2)c2c1CCN(c1ccc(C(=O)N3CCc4c(ncn4C4CC4)C3)cn1)C2 [Example 420, 5-(5-(1-cyclopropyl-4,5,6,7-tetrahydro-1H-imidazo[4,5-c]pyridine-5-carbonyl)pyridin-2-yl)-N-(4-(3,3-dimethylureido)benzyl)-1-isopropyl-4,5,6,7-tetrahydro-1H-pyrazolo[4,3-c]pyridine-3-carboxamide]	125	17
CC(C)n1nc(C(=O)NCc2ccc(NC(=O)N(C)C)cc2)c2c1CCN(c1ccc(CC(N)=O)cn1)C2 [Example 430, 5-(5-(2-amino-2-oxoethyl)pyridin-2-yl)-N-(4-(3,3-dimethylureido)benzyl)-1-isopropyl-4,5,6,7-tetrahydro-1H-pyrazolo[4,3-c]pyridine-3-carboxamide]	1410	333
CC(C)n1nc(C(=O)NCc2ccc(NC(=O)N(C)C)cc2)c2c1CCN(c1ccc(C(=O)N3Cc4cccc(C(=O)N(C)C)c4C3)cn1)C2 [Example 431, 5-(5-(4-(dimethylcarbamoyl)isoindoline-2-carbonyl)pyridin-2-yl)-N-(4-(3,3-dimethylureido)benzyl)-1-isopropyl-4,5,6,7-tetrahydro-1H-pyrazolo[4,3-c]pyridine-3-carboxamide]	89	12
CC(C)n1ncc2c1CN(C(=O)c1ccc(N3CCc4c(c(C(=O)NCc5ccc(NC(=O)N(C)C)cc5)nn4C(C)C)C3)nc1)CC2 [Example 437, N-(4-(3,3-dimethylureido)benzyl)-1-isopropyl-5-(5-(1-isopropyl-4,5,6,7-tetrahydro-1H-pyrazolo[3,4-c]pyridine-6-carbonyl)pyridin-2-yl)-4,5,6,7-tetrahydro-1H-pyrazolo[4,3-c]pyridine-3-carboxamide]	1050	45

Molecules with a lower IC50 [1], results first:

IC50 [1] [nM]	EC50 [2] [nM]	Structure (SMILES)
9	1	CC(C)n1nc(C(=O)NCc2ccc(-c3ncc[nH]3)cc2)c2c1[C@@H](C)CN(c1ccc(C(=O)N(C)C)cn1)C2 [Example 343, (S)-N-(4-(1H-imidazol-2-yl)benzyl)-5-(5-(dimethylcarbamoyl)pyridin-2-yl)-1-isopropyl-7-methyl-4,5,6,7-tetrahydro-1H-pyrazolo[4,3-c]pyridine-3-carboxamide]
11	2	CC(C)n1nc(C(=O)NCc2ccc(NC(=O)N(C)C)nc2)c2c1[C@@H](C)CN(c1ccc(C(=O)N(C)C)cn1)C2 [Example 349, (S)-5-(5-(dimethylcarbamoyl)pyridin-2-yl)-N-((6-(3,3-dimethylureido)pyridin-3-yl)methyl)-1-isopropyl-7-methyl-4,5,6,7-tetrahydro-1H-pyrazolo[4,3-c]pyridine-3-carboxamide]
6	2	CC(C)n1nc(C(=O)NCc2ccc(NC(=O)N(C)C)cn2)c2c1[C@@H](C)CN(c1ccc(C(=O)N(C)C)cn1)C2 [Example 350, (S)-5-(5-(dimethylcarbamoyl)pyridin-2-yl)-N-((5-(3,3-dimethylureido)pyridin-2-yl)methyl)-1-isopropyl-7-methyl-4,5,6,7-tetrahydro-1H-pyrazolo[4,3-c]pyridine-3-carboxamide]
6	1	CC(C)n1nc(C(=O)NCc2ccc(C(N)=O)cc2)c2c1[C@@H](C)CN(c1ccc(C(=O)N3Cc4cccnc4C3)cn1)C2 [Example 395, (S)—N-(4-Carbamoylbenzyl)-5-(5-(6,7-dihydro-5H-pyrrolo[3,4-b]pyridine-6-carbonyl)pyridin-2-yl)-1-isopropyl-7-methyl-4,5,6,7-tetrahydro-1H-pyrazolo[4,3-c]pyridine-3-carboxamide]
9	1	CCn1nc(C(=O)NCc2ccc(-c3nc(C)c[nH]3)cc2)c2c1[C@@H](C)CN(c1ncc(C(=O)N(C)C)cn1)C2 [Example 397, (S)-5-(5-(dimethylcarbamoyl)pyrimidin-2-yl)-1-ethyl-7-methyl-N-(4-(4-methyl-1H-imidazol-2-yl)benzyl)-4,5,6,7-tetrahydro-1H-pyrazolo[4,3-c]pyridine-3-carboxamide]
7	0.3	CCn1nc(C(=O)NCc2ccc(NC(=O)N3CCN(C)CC3)cc2)c2c1[C@@H](C)CN(c1ccc(C(=O)N(C)C)cc1)C2 [Example 398, (S)-5-(4-(dimethylcarbamoyl)phenyl)-1-ethyl-7-methyl-N-(4-(4-methylpiperazine-1-carboxamido)benzyl)-4,5,6,7-tetrahydro-1H-pyrazolo[4,3-c]pyridine-3-carboxamide]
